Measured values from the supplement of paper PMC12463676, “Small-molecule dissolution of stress granules by redox modulation benefits ALS models” (Nature Chemical Biology, 2025).

Tests used:
[1] = compound: NC(=O)CCCCC1CCSS1 [lipoamide]; assay: thermal stability z-score vs DMSO; higher = more thermally stabilized by treatment; conditions: HeLa, lipoamide concentration 100 µM
Experimental: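 Cellular thermal proteome profiling in HeLa cells. Cells were treated with 100 µM lipoamide for 1 h, with or without 1 mM arsenate for a further 1 h, then heated to ten temperatures (37-66.3 °C), and soluble protein was quantified by TMT mass spectrometry relative to 0.1% DMSO controls. The thermal stability score (sum of log2 fold changes minus the abundance score) was transformed to a z-score; mean of n = 3 experiments.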

[2] = compound: O=[As]([O-])(O)O.[K+] [potassium arsenate]; assay: as above; conditions: HeLa; arsenate concentration 1 mM
Experimental: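 Cellular thermal proteome profiling in HeLa cells treated with 1 mM arsenate for 1 h (DMSO pretreatment), heated to ten temperatures (37-66.3 °C). Soluble protein was quantified by TMT mass spectrometry relative to DMSO controls; the thermal stability score was transformed to a z-score; mean of n = 3 experiments.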

[3] = arsenate co-treatment: 1 mM arsenate 1 h
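Further: each temperature applied for 3 min, abundance score taken as mean log2 fold change at the two lowest temperatures, z-score obtained by mean subtraction and division by SD.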

Chain of UniProt Q8NBN7 (Q8NBN7 whole entry): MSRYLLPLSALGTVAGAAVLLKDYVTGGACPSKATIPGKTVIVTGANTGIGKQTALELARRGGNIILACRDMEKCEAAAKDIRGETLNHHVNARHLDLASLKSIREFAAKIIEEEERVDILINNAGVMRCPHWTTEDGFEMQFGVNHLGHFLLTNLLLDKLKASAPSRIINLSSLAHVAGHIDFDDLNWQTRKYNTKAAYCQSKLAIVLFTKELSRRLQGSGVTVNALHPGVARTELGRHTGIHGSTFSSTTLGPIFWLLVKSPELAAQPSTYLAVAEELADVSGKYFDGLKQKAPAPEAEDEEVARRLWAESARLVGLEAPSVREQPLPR
Chain of UniProt Q86SF2 (Q86SF2 whole entry): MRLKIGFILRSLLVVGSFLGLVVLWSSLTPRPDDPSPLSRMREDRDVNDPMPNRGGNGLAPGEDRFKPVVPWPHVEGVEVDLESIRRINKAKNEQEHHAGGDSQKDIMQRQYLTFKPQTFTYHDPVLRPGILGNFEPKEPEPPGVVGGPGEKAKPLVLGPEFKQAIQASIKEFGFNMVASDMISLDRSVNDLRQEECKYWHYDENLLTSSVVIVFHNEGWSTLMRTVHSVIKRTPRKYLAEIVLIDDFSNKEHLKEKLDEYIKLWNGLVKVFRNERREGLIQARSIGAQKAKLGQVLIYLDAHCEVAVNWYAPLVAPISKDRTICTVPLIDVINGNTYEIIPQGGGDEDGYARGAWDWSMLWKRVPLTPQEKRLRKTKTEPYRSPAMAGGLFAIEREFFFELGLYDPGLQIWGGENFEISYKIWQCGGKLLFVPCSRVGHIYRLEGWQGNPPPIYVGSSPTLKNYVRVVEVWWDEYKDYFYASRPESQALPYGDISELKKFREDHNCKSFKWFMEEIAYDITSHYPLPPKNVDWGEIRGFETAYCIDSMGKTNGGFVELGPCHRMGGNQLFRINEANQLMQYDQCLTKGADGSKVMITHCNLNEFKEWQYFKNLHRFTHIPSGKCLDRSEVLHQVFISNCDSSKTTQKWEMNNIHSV
Chain of UniProt Q9NQC7 (Q9NQC7 whole entry): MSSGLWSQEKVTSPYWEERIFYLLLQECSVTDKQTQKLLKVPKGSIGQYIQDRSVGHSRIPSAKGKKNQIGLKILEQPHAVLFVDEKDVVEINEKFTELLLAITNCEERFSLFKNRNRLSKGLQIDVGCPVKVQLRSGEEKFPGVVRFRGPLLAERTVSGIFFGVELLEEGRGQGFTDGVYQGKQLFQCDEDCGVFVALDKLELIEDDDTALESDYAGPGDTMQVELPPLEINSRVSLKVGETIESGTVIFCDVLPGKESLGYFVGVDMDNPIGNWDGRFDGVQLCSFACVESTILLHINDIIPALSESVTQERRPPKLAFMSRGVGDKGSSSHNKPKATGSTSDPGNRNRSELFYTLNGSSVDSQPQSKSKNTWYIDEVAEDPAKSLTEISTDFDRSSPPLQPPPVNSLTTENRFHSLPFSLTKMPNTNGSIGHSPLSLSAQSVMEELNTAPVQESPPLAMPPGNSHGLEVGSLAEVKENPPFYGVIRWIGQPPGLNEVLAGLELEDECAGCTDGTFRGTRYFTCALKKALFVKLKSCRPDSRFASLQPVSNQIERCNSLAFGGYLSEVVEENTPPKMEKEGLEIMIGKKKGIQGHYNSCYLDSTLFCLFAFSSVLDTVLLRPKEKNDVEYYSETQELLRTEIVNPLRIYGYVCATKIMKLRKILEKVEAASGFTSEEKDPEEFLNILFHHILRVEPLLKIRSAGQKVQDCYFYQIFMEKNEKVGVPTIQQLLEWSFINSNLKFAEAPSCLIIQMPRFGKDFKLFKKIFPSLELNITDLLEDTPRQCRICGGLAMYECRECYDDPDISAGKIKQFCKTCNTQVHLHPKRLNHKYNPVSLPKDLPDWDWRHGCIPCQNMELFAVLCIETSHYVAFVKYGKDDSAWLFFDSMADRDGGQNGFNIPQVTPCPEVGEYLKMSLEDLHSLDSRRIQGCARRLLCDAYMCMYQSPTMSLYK
Chain of UniProt Q9NRA2 (Q9NRA2 whole entry): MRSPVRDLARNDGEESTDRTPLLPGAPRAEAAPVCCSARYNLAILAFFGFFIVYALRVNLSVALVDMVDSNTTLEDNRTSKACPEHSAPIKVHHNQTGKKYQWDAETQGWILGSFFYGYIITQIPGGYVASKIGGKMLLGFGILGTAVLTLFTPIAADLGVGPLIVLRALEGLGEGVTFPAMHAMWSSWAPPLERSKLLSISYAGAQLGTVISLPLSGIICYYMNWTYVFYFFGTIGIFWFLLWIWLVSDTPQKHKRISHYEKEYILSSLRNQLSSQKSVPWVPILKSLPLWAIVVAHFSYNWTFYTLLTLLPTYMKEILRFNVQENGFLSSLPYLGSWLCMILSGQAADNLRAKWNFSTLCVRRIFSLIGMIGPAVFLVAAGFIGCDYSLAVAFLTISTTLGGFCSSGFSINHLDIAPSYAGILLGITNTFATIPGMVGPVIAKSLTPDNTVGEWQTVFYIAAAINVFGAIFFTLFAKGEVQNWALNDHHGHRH
Chain of UniProt O00423 (O00423 whole entry, looked up): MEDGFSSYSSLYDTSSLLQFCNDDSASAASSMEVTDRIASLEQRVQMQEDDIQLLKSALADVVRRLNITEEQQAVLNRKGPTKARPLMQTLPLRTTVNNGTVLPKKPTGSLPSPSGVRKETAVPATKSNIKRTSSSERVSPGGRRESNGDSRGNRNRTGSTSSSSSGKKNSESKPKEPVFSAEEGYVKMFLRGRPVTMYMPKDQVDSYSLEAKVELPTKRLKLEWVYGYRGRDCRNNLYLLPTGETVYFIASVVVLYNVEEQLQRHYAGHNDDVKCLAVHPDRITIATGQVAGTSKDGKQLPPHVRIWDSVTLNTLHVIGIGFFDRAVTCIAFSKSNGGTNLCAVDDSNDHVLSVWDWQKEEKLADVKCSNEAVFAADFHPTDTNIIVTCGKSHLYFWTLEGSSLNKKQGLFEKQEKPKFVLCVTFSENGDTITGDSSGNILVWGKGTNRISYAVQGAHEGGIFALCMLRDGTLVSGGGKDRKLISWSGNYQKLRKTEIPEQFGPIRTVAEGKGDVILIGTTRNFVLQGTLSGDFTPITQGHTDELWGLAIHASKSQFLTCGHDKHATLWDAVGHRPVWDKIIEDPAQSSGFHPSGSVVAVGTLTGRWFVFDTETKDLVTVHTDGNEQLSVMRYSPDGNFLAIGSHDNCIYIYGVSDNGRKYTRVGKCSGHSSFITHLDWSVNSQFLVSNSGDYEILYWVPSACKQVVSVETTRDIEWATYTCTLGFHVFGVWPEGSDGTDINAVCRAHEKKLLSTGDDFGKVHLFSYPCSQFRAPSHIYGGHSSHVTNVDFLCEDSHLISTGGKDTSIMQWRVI
Chain of UniProt O75083 (O75083 whole entry): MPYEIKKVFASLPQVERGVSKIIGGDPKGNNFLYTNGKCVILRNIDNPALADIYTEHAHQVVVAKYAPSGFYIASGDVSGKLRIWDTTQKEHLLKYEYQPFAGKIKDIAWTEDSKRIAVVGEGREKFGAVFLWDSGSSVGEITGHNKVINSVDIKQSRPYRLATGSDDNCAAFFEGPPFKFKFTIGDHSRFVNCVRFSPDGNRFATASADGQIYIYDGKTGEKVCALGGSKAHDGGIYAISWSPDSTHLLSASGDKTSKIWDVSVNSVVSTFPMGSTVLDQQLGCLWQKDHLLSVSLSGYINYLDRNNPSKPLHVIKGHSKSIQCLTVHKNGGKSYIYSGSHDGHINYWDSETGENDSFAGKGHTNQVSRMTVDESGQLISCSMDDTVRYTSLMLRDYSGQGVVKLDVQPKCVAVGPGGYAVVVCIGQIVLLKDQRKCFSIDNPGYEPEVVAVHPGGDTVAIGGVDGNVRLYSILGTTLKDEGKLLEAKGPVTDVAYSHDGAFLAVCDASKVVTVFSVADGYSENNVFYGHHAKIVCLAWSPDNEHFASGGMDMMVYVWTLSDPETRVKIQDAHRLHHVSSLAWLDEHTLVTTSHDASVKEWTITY
Chain of UniProt Q6VY07 (Q6VY07 whole entry, looked up): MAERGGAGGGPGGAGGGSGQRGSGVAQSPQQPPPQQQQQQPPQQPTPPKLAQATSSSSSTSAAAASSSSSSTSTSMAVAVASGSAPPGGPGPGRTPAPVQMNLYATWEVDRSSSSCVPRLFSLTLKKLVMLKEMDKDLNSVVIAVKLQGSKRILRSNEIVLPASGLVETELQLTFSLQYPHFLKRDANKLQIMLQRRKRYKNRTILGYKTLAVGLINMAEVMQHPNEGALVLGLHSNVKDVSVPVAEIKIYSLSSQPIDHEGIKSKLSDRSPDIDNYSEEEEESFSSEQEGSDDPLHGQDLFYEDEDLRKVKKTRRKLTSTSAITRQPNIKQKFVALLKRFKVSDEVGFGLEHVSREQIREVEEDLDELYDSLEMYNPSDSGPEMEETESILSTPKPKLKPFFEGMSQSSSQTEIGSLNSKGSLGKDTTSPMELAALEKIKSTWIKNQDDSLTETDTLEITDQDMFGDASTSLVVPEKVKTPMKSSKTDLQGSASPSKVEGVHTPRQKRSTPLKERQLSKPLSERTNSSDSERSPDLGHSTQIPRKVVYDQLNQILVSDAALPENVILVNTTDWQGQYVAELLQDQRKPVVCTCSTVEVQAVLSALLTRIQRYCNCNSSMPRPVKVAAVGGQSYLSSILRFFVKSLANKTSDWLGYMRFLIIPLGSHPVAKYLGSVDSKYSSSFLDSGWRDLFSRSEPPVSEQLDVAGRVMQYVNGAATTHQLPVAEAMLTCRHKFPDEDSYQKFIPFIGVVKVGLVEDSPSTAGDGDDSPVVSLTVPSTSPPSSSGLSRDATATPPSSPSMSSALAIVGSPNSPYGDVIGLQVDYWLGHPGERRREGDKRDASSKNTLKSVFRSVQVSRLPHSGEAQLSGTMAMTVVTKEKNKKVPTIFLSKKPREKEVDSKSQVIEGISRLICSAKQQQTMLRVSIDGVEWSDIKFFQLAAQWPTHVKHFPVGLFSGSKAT
Chain of UniProt Q15382 (Q15382 whole entry): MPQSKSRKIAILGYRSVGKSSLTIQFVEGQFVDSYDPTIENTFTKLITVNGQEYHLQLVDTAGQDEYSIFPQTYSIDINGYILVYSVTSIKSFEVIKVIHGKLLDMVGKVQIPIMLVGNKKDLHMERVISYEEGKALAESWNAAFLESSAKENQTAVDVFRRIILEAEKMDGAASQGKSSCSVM

Target	thermal stability z-score [1, 3]	thermal stability z-score ([1]; arsenate co-treatment: none)	thermal stability z-score [2]
PRKACB (UniProt P22694)	-0.58	-0.36	0.18
SEC61B (UniProt P60468)	0.911	0.44	0.265
GALNT7 (UniProt Q86SF2)	0.205	-0.0334	0.187
RHEB (UniProt Q15382)	-0.13	0.625	1.46
SUGT1 (UniProt Q9Y2Z0)	0.611	0.585	0.388
SH3BP4 (UniProt Q9P0V3)	0.0947	0.0993	-0.0405
PFDN4 (UniProt Q9NQP4)	0.286	0.37	-0.445
RPS6KC1 (UniProt Q96S38)	-0.161	-0.151	-0.393
SOAT1 (UniProt P35610)	-1.32	-0.546	0.731
GLA (UniProt P06280)	-1.1	-0.822	0.421
TPP1 (UniProt O14773)	-0.299	-0.137	-0.0975
UBAC2 (UniProt Q8NBM4)	-0.594	-0.778	-0.0559
SMARCAL1 (UniProt Q9NZC9)	0.0881	-0.0213	-0.0552
EML1 (UniProt O00423)	0.345	0.15	-0.156
WDR1 (UniProt O75083)	0.454	0.0649	-0.59
SRRM2 (UniProt Q9UQ35)	2.25	1.42	-0.494
MPZL2 (UniProt O60487)	0.503	-0.0637	-0.0559
VPS11 (UniProt Q9H270)	-0.214	-0.578	0.734
CCZ1B|CCZ1	0.296	0.0817	0.404
ST3GAL4 (UniProt Q11206)	-0.112	0.0672	0.726
FUNDC2 (UniProt Q9BWH2)	0.0791	-0.555	-0.587
LRRC40 (UniProt Q9H9A6)	-0.119	0.108	0.245
BOLA2 (UniProt Q9H3K6)	0.16	0.49	0.583
NMNAT1 (UniProt Q9HAN9)	1.03	1.15	1.87

Target	thermal stability z-score [1, 3]	thermal stability z-score ([1]; arsenate co-treatment: none)	thermal stability z-score [2]
KLHL13 (UniProt Q9P2N7)	-0.764	-0.242	0.825
RPL26L1 (UniProt Q9UNX3)	0.252	0.884	0.434
BICD2 (UniProt Q8TD16)	0.184	0.121	0.755
PML (UniProt P29590)	1.95	0.537	5.01
PRPF6 (UniProt O94906)	-0.136	-0.0563	-0.171
EIF2D (UniProt P41214)	-1.12	-0.337	-1.22
ZNF217 (UniProt O75362)	-0.058	0.343	-0.589
UniProt E7EQ34|GOSR2	-0.785	-0.401	-0.878
SPG7 (UniProt Q9UQ90)	-0.126	-0.0687	0.156
ACTR2 (UniProt P61160)	-0.116	-0.175	-0.487
FARSB (UniProt Q9NSD9)	0.262	-0.0911	0.893
SH3GLB2 (UniProt Q9NR46)	-0.0875	0.468	0.364
CYLD (UniProt Q9NQC7)	-0.238	0.0192	0.144
PTPN11 (UniProt Q06124)	0.431	0.267	-0.559
IMMT (UniProt Q16891)	0.667	0.854	1.31
CDK5 (UniProt Q00535)	-0.0682	0.212	0.0671
SLC22A18 (UniProt Q96BI1)	0.00763	-0.34	-0.0251
RDH13 (UniProt Q8NBN7)	-0.0891	-0.278	0.307
HM13 (UniProt Q8TCT9)	0.0446	-0.0484	0.759
HNRNPH2 (UniProt P55795)	-0.319	-0.0126	-0.224
LSM1 (UniProt O15116)	1.6	2.05	0.83
ARPC3 (UniProt O15145)	0.0284	0.0195	-0.254
THOC5 (UniProt Q13769)	0.945	0.187	0.536
ANKRD54 (UniProt Q6NXT1)	-0.042	-0.267	-0.49

Target	thermal stability z-score [1, 3]	thermal stability z-score ([1]; arsenate co-treatment: none)	thermal stability z-score [2]
CYP2S1 (UniProt Q96SQ9)	-1.14	-0.765	-0.647
PHB (UniProt P35232)	0.394	0.55	0.222
ALG13 (UniProt Q9NP73)	0.336	0.571	-0.739
EXOSC9 (UniProt Q06265)	0.0277	-1.24	-1.59
EIF4ENIF1 (UniProt Q9NRA8)	-0.03	0.00167	-0.0325
SLC17A5 (UniProt Q9NRA2)	0.265	0.076	-0.982
SKP1 (UniProt P63208)	0.337	0.557	-0.000141
ANXA6 (UniProt P08133)	3.2	3.6	2.15
PACS1 (UniProt Q6VY07)	-0.0876	0.134	0.404
CEP170 (UniProt Q5SW79)	-0.0596	-0.496	1.21
CAMSAP1 (UniProt Q5T5Y3)	0.0305	-0.371	-0.293
RBM34 (UniProt P42696)	0.0729	-0.0422	-0.201
PIGU (UniProt Q9H490)	-0.834	-0.665	0.169
MRTO4 (UniProt Q9UKD2)	0.246	0.308	0.036
TRAPPC11 (UniProt Q7Z392)	-0.549	-1.8	-0.537
NAPA (UniProt P54920)	0.374	0.143	1.02
PPA2 (UniProt Q9H2U2)	-1.03	-0.335	-0.244
MFSD5 (UniProt Q6N075)	0.0483	0.442	0.661
DTNBP1 (UniProt Q96EV8)	0.331	0.505	-0.102
MBTPS1 (UniProt Q14703)	-0.923	-0.876	-0.822
UXS1 (UniProt Q8NBZ7)	0.238	0.551	0.198
PI4K2A (UniProt Q9BTU6)	0.0172	-0.189	-0.0745
FOCAD (UniProt Q5VW36)	0.151	0.411	-0.279
